ChEMBL document CHEMBL4011661, “The Fragment Network: A Chemistry Recommendation Engine Built Using a Graph Database” (J Med Chem, 2017)

Test system: not listed separately
Assay: Inhibition of 5-FAM peptide binding to Hepatitis C virus full length NS3/4A helicase after 30 mins by FRET assay
Parameters: species or system Hepacivirus hominis

Row | Compound | IC50
1 | NCc1ccc(Oc2ccccc2)cc1 | 500 µM
2 | NCc1ccc(C(=O)c2ccccc2)cc1 | 180 µM

Further lines, results first:

Row | IC50 | Compound
3 | 20 µM | NCc1ccc(F)c(Oc2ccccc2)c1F
4 | 41 µM | NCc1ccc(Oc2ccccc2)c(Cl)c1
5 | 130 µM | NCc1cccc(Oc2ccccc2)c1
6 | 34 µM | NCc1cc(F)c(Oc2ccccc2)c(F)c1

Target: RAC-beta serine/threonine-protein kinase (Homo sapiens, UniProt P31751)
Sequence (P31751 whole entry): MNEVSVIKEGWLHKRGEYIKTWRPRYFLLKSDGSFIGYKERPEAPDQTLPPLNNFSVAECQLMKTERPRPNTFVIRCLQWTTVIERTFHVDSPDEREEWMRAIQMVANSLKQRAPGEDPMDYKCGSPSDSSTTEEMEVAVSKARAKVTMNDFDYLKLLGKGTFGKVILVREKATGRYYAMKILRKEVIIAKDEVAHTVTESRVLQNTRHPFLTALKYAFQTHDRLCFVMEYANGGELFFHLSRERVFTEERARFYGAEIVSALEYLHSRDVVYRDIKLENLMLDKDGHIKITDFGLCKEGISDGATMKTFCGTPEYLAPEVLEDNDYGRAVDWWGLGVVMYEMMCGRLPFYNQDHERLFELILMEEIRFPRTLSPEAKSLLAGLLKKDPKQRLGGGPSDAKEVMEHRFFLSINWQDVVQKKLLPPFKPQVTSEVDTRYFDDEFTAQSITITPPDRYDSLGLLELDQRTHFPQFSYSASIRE
Assay: Inhibition of PKBbeta (unknown origin) in presence of [33P-gamma]ATP by scintillation counting

Row | IC50 | Compound
7 | 660 µM | Cc1n[nH]c(N)c1-c1ccccc1
8 | 72 µM | Cc1n[nH]c(C)c1-c1ccccc1
